From patent publication US10011833B2, “Bridged bicyclic nucleosides” (MIRAGEN THERAPEUTICS, INC., priority 2013, dated 2018)
“Also recorded” adds a separate entry of the source.

Assays:
mature human miR-208a = assay: Duplex melting temperature (Tm) of anti-208a oligonucleotides annealed to complementary RNA; type: binding; conditions: for Tm / ΔTm/mod / ΔTm, DNA / ΔTm, parent: RNA complement; for Tm: duplex 1 μM in 0.9% NaCl, in °C (unit assumed); for ΔTm, DNA: versus fully DNA oligo 10931; for ΔTm, parent: versus parent 10101
Experimental: The melting temperature (Tm) of modified 16 nucleotide phosphodiester strands were determined and compared to the Tm of identical 16 nucleotide sequences having natural phosphodiester DNA nucleotides. Specifically, the relative aminoCBBN melting temperature (Tm) compared to the 2′-deoxynucleoside or oxoCBBN nucleoside with the same nucleobase was determined on a per incorporation basis by determining the difference between the melting temperature of the amino-modified 16 nucleotide length phosphodiester strand and that of the identical 16 nucleotide sequence utilizing either the 2′-deoxynucleoside or oxoCBBN phosphodiester DNA nucleotide. Tm differences of substitutions were compared only when they were placed in the same position of the sequence.
For example, the modified anti-208a oligonucleotides were annealed to the complementary sequence, twenty-two nucleotides in length, comprised of RNA nucleosides and a phosphate backbone. The complementary sequence was identical to the endogenous mature miRNA. Thermal denaturation temperatures (Tm) were measured as a maximum of the first derivative plot of melting curvex (A260 vs. Temp). The duplexes were constituted at 1 μM in a 0.9% NaCl buffer. Temperature was ramped from 25° C. to 95° C. at 1° C./min and OD's at 260 nm were read once per 30 seconds. Tm values are averages of at least two measurements.
Duplex melting temperatures for various modifications of a 16 nucleotide sequence, complementary to a nucleotide sequence of mature human miR-208a were measured using a Varian Cary 1E UV-Vis Spectrophotometer. Anti-miRNA 208a oligonucleotide sequences tested included a fully DNA phosphodiester (compound M-10931), four DNA phosphodiester oligonucleotides with 1, 2 or 3 aminoCBBN thymidine residues in place of dT residues (compounds M-1915, M-1916, M-1917, and M-11918), mixed 9 LNA/7 DNA phosphorothioate oligonucleotide (compound M-10101), and 2 mixed LNA/DNA/aminoCBBN phosphorothioate oligonucleotides where LNA thymidines of the parent compound, compound M-10101, were replaced with either 1 or 2 aminoCBBN residues (compounds M-11919 and M-11920). Duplexes were constituted at 1 μM in 0.9% NaCl. Temperature was ramped from 25° C. to 95° C. at 1° C./min and OD's at 260 nm were read once per 30 seconds.

RNA Complement = conditions: 9mer, phosphate backbone, cited from earlier work; for Tm: RNA complement, literature values
miR-208a = assay: Dual-luciferase reporter assay in HeLa cell line stably expressing miR-208a; type: cell-based; conditions: HeLa cells expressing miR-208a, 24 hours at 37° C., FIG. 6
Experimental: A HeLa cell line stably expressing miR-208a was generated. Specifically, a miRNA expression vector (Cell BioLabs, Inc.) expressing miR-208a was transfected into HeLa cells. Cells were then selected using a puromycin selection screen and clones which had detectable miR-208a expression as measured by qPCR were isolated (Ct value=˜30).
The cells were plated in a black-walled 96 well plate with 10,000 cells per well. After twenty-four hours following plating, the cells were transfected with a dual-luciferase plasmid containing the miR-208a binding site in the 3′ UTR of the renilla gene and various miR-208a inhibitors (compounds M-11919, M-11920, and M-10101). Compound M-10591 was a non-targeting control. The cells were incubated for 24 hours at 37° C. and then both firefly (as a transfection normalization) and renilla levels were measured by luminescence using the Dual-Luciferase Reporter Assay System (Promega). Data was normalized to cells treated with only the miR-208a dual luciferase plasmid (psi check 208a).

[1] = PS backbone, per modification versus parent 10101

Question: With “ICs;dTs;dTs;dTs;ITs;ITs;dGs;ICs;dTs;ICs;IGs;dTs;ICs;dTs;ITs;IA [Oligo 10101, reference compound]” as the substance, how does the Tm (mature human miR-208a; PS backbone, 10101-like) read?
Answer: 86.7

Question: Which results are given for “bC.bT.bT.bT.bT.bT.dG.bC.bT.bC.dG.bT.bC.bT.bT. dA [Oligo 10924, reference compound]”?
Answer: Tm (mature human miR-208a; phosphate backbone): 89.8; ΔTm/mod (mature human miR-208a; phosphate backbone, per modification versus DNA): 2.8 ° C./modification; ΔTm, DNA (mature human miR-208a; phosphate backbone): 36.7 °C

Question: What does the source list for “dC;dT;dT;dT;dT;dT;dG;dC;dT;dC;dG;dT;dC;dT;dT;dA (antisense CTTTTTGCTCGTCTTA; DNA, backbone not given here) [Oligo 10931, reference compound]”?
Answer: Tm (mature human miR-208a; phosphate backbone): 53.1; ΔTm, DNA (mature human miR-208a; phosphate backbone): 0 °C

Question: With “dG;IT;dG;dA;IT;dA;IT;dG;dC [DNA_9mer_PO_3LNA-T]” as the substance, how does the Tm (RNA Complement) read?
Answer: 50 °C

Question: Which Tm (RNA Complement) does the source give for “dG;aIT;dG;dA;aIT;dA;aIT;dG;dC [DNA_9mer_PO_3aminoLNA-T]” here?
Answer: 47 °C

Question: And the ΔTm/mod (RNA Complement; versus 3LNA-T parent, literature)?
Answer: -1 ° C./modification

Question: For “lCs.dTs.dTs.dTs.abTs.abTs.dGs.lCs.dTs.lCs.lGs.dTs. lCs.dTs.lTs.lA [Oligo 11919]”, which “affinity for the miR-208a RNA (Tm data), in words” value (mature human miR-208a; PS backbone oligonucleotides) is on record?
Answer: less affinity for the miR-208a RNA than the M-11920 compound

Question: What about the Tm (mature human miR-208a; PS backbone, 10101-like) of the same substance?
Answer: 80.04

Question: What about the ΔTm/mod (mature human miR-208a; [1]) of the same substance?
Answer: -6.66 ° C./modification

Question: And the “ΔTm, parent” value (mature human miR-208a; PS backbone)?
Answer: -6.66

Question: What about the “miR208a inhibition activity (dual-luciferase reporter), in words” value (miR-208a) of the same substance?
Answer: slightly less activity compared to the other two inhibitors

Question: For “lCs.dTs.dTs.dTs.lTs.lTs.dGs.lCs.dTs.lCs.lGs.dTs.lCs. dTs.abTs.lA [Oligo 11920]”, which Tm (mature human miR-208a; PS backbone, 10101-like) is on record?
Answer: 85.125

Question: What about the ΔTm/mod (mature human miR-208a; [1]) of the same substance?
Answer: -0.7875 ° C./modification

Question: What about the “ΔTm, parent” value (mature human miR-208a; PS backbone) of the same substance?
Answer: -1.575

Question: What about the “miR208a inhibition activity (dual-luciferase reporter), in words” value (miR-208a; listed as M-11920) of the same substance?
Answer: comparable activity as compound M-10101; also recorded: retains all activity of the optimized M-10101 compound
